In US20250134952A1, “METHODS FOR IMPROVING THE EFFICACY OF HDAC INHIBITOR THERAPY AND PREDICTING THE RESPONSE TO TREATMENT WITH HDAC INHIBITOR” (INSTITUT NATIONAL DE LA SANTÉ ET DE LA RECHERCHE MÉDICALE, priority 2021, published 2025):

Tested on: MCF7shctrl and MCF7shTau subclones
Experiment: Apoptosis by flow cytometry of PI-positive and Annexin-V-positive cells
Assay type: cell-based, human
Details: 100 nM TSA, 48 h
Method: FIG. 1: Tau inhibition increases MCF7 breast cancer cell line sensitivity to TSA. (A) Tau protein expression in MCF7, MCF7shctrl and shTau were quantify by Elisa. (B) Effect of 100 nM TSA (48 h) on cell death in the MCF7shctrl and MCF7shTau subclones. Cell death was determined by staining and flow cytometric analysis as described in the materials and methods. (C) Effect of 100 nM TSA (48 h) on apoptosis in the MCF7shctrl and MCF7shTau subclones. Apoptosis was determined by flow cytometric analysis of the PI-positive and Annexin-V-positive cells as described in the materials and methods. (D) Cell cycle distribution was determined by FACS analysis of combined propidium iodide and EdU staining in MCF7shctrl and MCF7shTau in the absence or presence 100 nM TSA, 48 h. Data are mean±SD **P<0.01***P<0.001. […]
SH-SY5Y human neuroblastoma cells expressing Tau4R tagged with the streptavidin-binding peptide (SBP) (referred as SH-SY5Y-(SBP)Tau4R) (Chauderlier et al., 2018), SH-SY5Y-Tet-on-Tau4R, Hela cells, MCF7 and MDA-MB-231 were cultured in Dulbecco's Modified Eagle's Medium with 10% fetal bovine serum, 2 mM L-glutamine and 50 U/ml penicillin/streptomycin (Gibco) at 37° C. in 5% CO2 humidified air. […] For stable clones, luciferase activities were measured using the luciferase assay system (Promega) and normalized against protein concentration. […]

Work on `CC(/C=C/C(=O)NO)=C\[C@@H](C)C(=O)c1ccc(N(C)C)cc1` [TSA, 2,4-Heptadienamide, 7-[4-(dimethylamino)phenyl]-N-hydroxy-4,6-dimethyl-7-oxo-, (2E,4E,6R)-] yielded an apoptosis (Tau-knockdown cells (MCF7shTau)) of 48% and an apoptosis (sh-ctrl cells (MCF7shctrl)) of 30%.
